Measurements published in ChEMBL document CHEMBL1135285, “Synthesis and structure-activity relationships of a novel series of HIV-1 protease inhibitors encompassing ABT-378 (Lopinavir)” (Bioorg Med Chem Lett, 2002).

Key:
[1] = biological target: Human immunodeficiency virus type 1 protease (Human immunodeficiency virus 1) (UniProt Q72874); assay: Inhibition of HIV protease at 0.5 nM
[2] = tested on: MT4; assay: Compound was tested for antiviral activity against HIV-IIIB in MT-4 cells in presence of 50% human serum; format: functional, cell-based

Row | SMILES | inhibition [1] [%] | EC50 [2] [nM]
1 | Cc1cc(F)cc(C)c1OCC(=O)N[C@H](Cc1ccccc1)[C@H](O)C[C@@H](Cc1ccccc1)NC(=O)[C@@H](C(C)C)N1CCCNC1=O | 90 | 490
2 | CC(C)[C@H](C(=O)N[C@H](Cc1ccccc1)C[C@@H](O)[C@@H](Cc1ccccc1)NC(=O)COc1c(Cl)cccc1Cl)N1CCCNC1=O | 87 | 2800
3 | Cc1cccc(C)c1SCC(=O)N[C@H](Cc1ccccc1)[C@H](O)C[C@@H](Cc1ccccc1)NC(=O)[C@@H](C(C)C)N1CCCNC1=O | 55 | 4100
4 | Cc1ccnc(C)c1OCC(=O)N[C@H](Cc1ccccc1)[C@H](O)C[C@@H](Cc1ccccc1)NC(=O)[C@@H](C(C)C)N1CCCNC1=O | 75 | 770
5 | Cc1ncnc(C)c1OCC(=O)N[C@H](Cc1ccccc1)[C@H](O)C[C@@H](Cc1ccccc1)NC(=O)[C@@H](C(C)C)N1CCCNC1=O | 79 | 4200
6 | Cc1cc(C)c(OCC(=O)N[C@H](Cc2ccccc2)[C@H](O)C[C@@H](Cc2ccccc2)NC(=O)[C@@H](C(C)C)N2CCCNC2=O)c(C)c1 | 85 | 390
7 | COc1cccc(OC)c1OCC(=O)N[C@H](Cc1ccccc1)[C@H](O)C[C@@H](Cc1ccccc1)NC(=O)[C@@H](C(C)C)N1CCCNC1=O | 38 | 14000
8 | Cc1ccccc1OCC(=O)N[C@H](Cc1ccccc1)[C@H](O)C[C@@H](Cc1ccccc1)NC(=O)[C@@H](C(C)C)N1CCCNC1=O | 84 | 430
9 | Cc1cc(C)cc(OCC(=O)N[C@H](Cc2ccccc2)[C@H](O)C[C@@H](Cc2ccccc2)NC(=O)[C@@H](C(C)C)N2CCCNC2=O)c1 | 37 | 38000
10 | Cc1cccc(C)c1CCC(=O)N[C@H](Cc1ccccc1)[C@H](O)C[C@@H](Cc1ccccc1)NC(=O)[C@@H](C(C)C)N1CCCNC1=O | 70 | 2600
11 | CC(C)[C@H](C(=O)N[C@H](Cc1ccccc1)C[C@@H](O)[C@@H](Cc1ccccc1)NC(=O)COc1ccccc1)N1CCCNC1=O | 67 | 1300
12 | Cc1cccc(C)c1OCC(=O)N[C@@H](Cc1ccccc1)[C@@H](O)C[C@H](Cc1ccccc1)NC(=O)[C@H](C(C)C)N1CCCNC1=O (single isomer, unassigned) [LOPINAVIR] |  | 100
13 | Cc1cc(N)cc(C)c1OCC(=O)N[C@H](Cc1ccccc1)[C@H](O)C[C@@H](Cc1ccccc1)NC(=O)[C@@H](C(C)C)N1CCCNC1=O | 86 | 160
